{"source": "paper PMC3502291", "about": "“Identification of Small Molecule Inhibitors of PTPσ through an Integrative Virtual and Biochemical Approach” (PLoS ONE, 2012)", "assay_type_in_all_cases": "biochemical", "key": {"[1]": {"target": "T1, PTPσ (Homo sapiens, UniProt Q13332)", "T1 construct": "gene PTPRS; GST-tagged recombinant PTPσ, all residues C-terminal to the transmembrane domain (BC104812 cDNA; aa 883-1501)", "T1 sequence (Q13332 1330-1948)": "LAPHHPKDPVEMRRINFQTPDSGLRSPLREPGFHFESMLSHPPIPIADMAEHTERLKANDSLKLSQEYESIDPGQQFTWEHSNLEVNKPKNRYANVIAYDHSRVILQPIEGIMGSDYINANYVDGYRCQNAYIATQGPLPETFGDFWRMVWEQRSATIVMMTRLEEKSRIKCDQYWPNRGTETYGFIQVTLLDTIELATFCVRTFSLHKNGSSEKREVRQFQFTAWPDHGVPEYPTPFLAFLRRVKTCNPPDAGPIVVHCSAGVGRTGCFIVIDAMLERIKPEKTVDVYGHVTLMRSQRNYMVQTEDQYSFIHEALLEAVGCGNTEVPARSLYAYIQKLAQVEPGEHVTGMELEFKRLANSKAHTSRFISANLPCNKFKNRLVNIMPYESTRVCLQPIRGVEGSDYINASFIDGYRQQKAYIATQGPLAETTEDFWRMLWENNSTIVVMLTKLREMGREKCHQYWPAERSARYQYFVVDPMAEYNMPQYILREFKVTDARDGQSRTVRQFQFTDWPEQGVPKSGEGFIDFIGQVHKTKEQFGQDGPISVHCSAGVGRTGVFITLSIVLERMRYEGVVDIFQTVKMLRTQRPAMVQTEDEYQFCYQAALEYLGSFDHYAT", "assay": "pNPP phosphatase assay with purified GST-PTPσ, positive control"}, "[2]": {"target": "T1, PTPσ", "assay": "pNPP phosphatase assay with purified GST-PTPσ, dose-response, with and without catalase"}, "[3]": {"target": "T1, PTPσ", "assay": "Km from initial velocities of dephosphorylation ([…] nm absorbance)"}}}
{"compound": "[O]=[V]([OH])([OH])[OH]", "note": "[Na3VO4, sodium orthovanadate]", "values": [{"measurement": "pNPP phosphatase assay with purified GST-PTPσ, positive control", "setting": "[1]", "result": "Sodium orthovanadate (Na3VO4) is a pan inhibitor of PTPs and was included as a positive control"}]}
{"compound": "O=C(C=CNc1cc([N+](=O)[O-])ccc1O)c1ccc(Cl)c(Cl)c1", "note": "[compound 36, 1-(3,4-dichlorophenyl)-3-[(2-hydroxy-5-nitrophenyl)amino]-2-propen-1-one]", "values": [{"measurement": "IC50", "setting": "[2]", "result": 10, "unit": "µM"}]}
{"compound": "para-nitrophenyl phosphate [pNPP]", "values": [{"measurement": "Km", "setting": "[3]", "result": 250, "unit": "µM"}]}
